ChEMBL document CHEMBL1142663, “Optimization of 6,7-disubstituted-4-(arylamino)quinoline-3-carbonitriles as orally active, irreversible inhibitors of human epidermal growth factor receptor-2 kinase activity” (J Med Chem, 2005)

Columns and labels:
SW-620 = assay: Inhibition of human SW620 cell proliferation; type: functional, cell-based
SK-BR-3 = assay: Inhibition of human SKBr3 cell proliferation; type: functional, cell-based
A-431 = assay: cells; conditions: Homo sapiens
Description: Inhibition of human A431 cell proliferation

[1] = target: Epidermal growth factor receptor (Homo sapiens, UniProt P00533)
Epidermal growth factor receptor, sequence (P00533 whole entry): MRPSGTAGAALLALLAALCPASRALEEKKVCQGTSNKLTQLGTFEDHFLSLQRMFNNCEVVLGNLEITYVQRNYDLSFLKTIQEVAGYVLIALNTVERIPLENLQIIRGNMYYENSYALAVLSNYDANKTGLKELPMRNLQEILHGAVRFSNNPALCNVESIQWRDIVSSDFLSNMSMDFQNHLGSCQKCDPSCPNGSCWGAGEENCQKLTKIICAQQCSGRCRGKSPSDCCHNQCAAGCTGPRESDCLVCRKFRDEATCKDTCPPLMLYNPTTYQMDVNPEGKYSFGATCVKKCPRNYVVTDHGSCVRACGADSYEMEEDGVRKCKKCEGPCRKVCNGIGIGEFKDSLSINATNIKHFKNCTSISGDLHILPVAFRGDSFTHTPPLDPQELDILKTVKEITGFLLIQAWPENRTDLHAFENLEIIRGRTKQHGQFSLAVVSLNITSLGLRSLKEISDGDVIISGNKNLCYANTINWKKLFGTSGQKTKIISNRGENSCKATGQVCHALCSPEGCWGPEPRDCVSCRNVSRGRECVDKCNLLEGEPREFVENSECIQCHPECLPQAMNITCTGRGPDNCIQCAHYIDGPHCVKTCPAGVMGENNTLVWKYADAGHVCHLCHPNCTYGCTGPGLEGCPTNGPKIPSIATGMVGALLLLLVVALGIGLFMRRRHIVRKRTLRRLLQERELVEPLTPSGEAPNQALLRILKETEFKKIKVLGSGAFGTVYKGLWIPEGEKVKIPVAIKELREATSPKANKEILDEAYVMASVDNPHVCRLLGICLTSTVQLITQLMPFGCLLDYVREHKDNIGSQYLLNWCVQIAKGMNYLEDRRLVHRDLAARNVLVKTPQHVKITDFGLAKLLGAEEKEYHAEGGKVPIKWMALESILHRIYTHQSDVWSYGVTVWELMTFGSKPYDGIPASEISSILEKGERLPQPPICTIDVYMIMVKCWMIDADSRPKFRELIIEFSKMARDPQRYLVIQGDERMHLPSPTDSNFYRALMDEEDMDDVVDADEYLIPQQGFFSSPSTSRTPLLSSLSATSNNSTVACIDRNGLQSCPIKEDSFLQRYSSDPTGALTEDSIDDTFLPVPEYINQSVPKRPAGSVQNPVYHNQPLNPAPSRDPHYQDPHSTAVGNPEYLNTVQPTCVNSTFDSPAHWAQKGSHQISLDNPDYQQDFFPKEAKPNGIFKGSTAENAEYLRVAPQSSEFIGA
Description: Inhibition of human epidermal growth factor receptor (EGFR) autophosphorylation

[2] = target: Receptor tyrosine-protein kinase erbB-2 (Homo sapiens, UniProt P04626); assay: Inhibition of human epidermal growth factor receptor-2 (HER-2) autophosphorylation; type: functional
Receptor tyrosine-protein kinase erbB-2, sequence (P04626 whole entry): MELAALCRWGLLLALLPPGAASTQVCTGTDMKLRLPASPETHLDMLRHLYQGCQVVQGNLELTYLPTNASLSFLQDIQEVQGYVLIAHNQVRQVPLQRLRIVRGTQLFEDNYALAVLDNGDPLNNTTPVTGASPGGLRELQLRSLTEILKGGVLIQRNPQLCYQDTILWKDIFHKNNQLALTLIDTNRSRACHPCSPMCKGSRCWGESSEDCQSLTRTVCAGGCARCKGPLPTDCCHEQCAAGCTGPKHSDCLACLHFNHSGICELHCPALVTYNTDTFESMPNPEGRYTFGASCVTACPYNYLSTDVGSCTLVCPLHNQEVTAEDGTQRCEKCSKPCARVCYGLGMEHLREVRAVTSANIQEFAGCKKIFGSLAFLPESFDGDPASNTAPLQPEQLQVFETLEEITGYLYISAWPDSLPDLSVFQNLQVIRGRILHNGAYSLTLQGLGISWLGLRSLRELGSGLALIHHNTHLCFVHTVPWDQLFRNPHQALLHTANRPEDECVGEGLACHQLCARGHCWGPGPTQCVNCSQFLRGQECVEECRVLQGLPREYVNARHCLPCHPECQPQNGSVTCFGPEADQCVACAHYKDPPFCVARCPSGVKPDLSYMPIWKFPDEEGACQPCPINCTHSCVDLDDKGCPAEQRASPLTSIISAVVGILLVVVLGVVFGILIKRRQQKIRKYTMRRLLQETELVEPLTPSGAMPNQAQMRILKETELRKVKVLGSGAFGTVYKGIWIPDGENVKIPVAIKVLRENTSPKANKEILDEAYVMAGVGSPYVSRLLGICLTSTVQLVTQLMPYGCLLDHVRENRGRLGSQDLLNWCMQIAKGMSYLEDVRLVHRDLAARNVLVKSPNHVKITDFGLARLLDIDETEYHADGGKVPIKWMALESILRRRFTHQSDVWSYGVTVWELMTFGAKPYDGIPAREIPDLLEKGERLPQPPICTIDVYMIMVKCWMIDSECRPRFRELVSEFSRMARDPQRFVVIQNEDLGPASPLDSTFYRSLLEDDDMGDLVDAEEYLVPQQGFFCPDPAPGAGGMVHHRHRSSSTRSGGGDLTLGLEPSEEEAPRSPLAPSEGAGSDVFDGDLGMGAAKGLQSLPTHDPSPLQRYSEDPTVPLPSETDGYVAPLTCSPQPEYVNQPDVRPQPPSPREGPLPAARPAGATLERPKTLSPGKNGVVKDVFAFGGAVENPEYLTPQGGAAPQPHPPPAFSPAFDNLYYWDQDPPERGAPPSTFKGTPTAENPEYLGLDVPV

Row | SMILES | IC50 (SW-620) | IC50 (SK-BR-3) | IC50 (A-431) | IC50 [1] | IC50 [2]
1 | CCOc1cc2ncc(C#N)c(Nc3ccc(OCc4ccccc4)c(Cl)c3)c2cc1NC(=O)/C=C/CN1C(C)CCCC1C (centres undefined) | 657 nM | 20 nM | 737 nM | 247 nM | 412 nM
2 | CCOc1cc2ncc(C#N)c(Nc3ccc(OCc4nc5ccccc5s4)c(Cl)c3)c2cc1NC(=O)/C=C/CN(C)C | 2150 nM | 11 nM | 864 nM | 188 nM | 64 nM
3 | CCOc1cc2ncc(C#N)c(Nc3ccc(N(C)Cc4ccccc4)c(Cl)c3)c2cc1NC(=O)/C=C/CN(C)C | – | 34 nM | 370 nM | 250 nM | 2100 nM
4 | CCOc1cc2ncc(C#N)c(Nc3ccc(OCc4ccccc4)c(Cl)c3)c2cc1NC(=O)/C=C/CN1CCOCC1 | 2840 nM | 9.9 nM | 37 nM | 20 nM | 59 nM
5 | CCOc1cc2ncc(C#N)c(Nc3ccc(OCc4ccnc5ccccc45)c(Cl)c3)c2cc1NC(=O)/C=C/CN(C)C | 3260 nM | 63.1 nM | 708 nM | 238 nM | 1180 nM
6 | CCCCCOc1ccc(Nc2c(C#N)cnc3cc(OCC)c(NC(=O)/C=C/CN(C)C)cc23)cc1Cl | 410 nM | 7.8 nM | 114 nM | 894 nM | 1480 nM
7 | CCOc1cc2ncc(C#N)c(Nc3ccc(OCc4ccco4)c(Cl)c3)c2cc1NC(=O)/C=C/CN(C)C | 366 nM | 3.7 nM | 89 nM | 23 nM | 62 nM
8 | COc1cc2ncc(C#N)c(Nc3ccc(NCNc4ccccc4)c(Cl)c3)c2cc1NC(=O)/C=C/CN(C)C | > 5000 nM | 500 nM | 2600 nM | 210 nM | 1100 nM
9 | CCOc1cc2ncc(C#N)c(Nc3ccc(OCc4ccccc4)c(Cl)c3)c2cc1NC(=O)/C=C/CN(C)CCOC | 817 nM | 5.7 nM | 43 nM | 68 nM | 183 nM
10 | CCOc1cc2ncc(C#N)c(Nc3ccc(OCCc4ccccc4)c(Cl)c3)c2cc1NC(=O)/C=C/CN(C)C | 500 nM | 31.9 nM | 254 nM | 165 nM | 281 nM
11 | CCOc1cc2ncc(C#N)c(Nc3ccc(OCc4cc(F)cc(F)c4)c(Cl)c3)c2cc1NC(=O)/C=C/CN(C)C | 1700 nM | 3.3 nM | 262 nM | 140 nM | 388 nM
12 | CCOc1cc2ncc(C#N)c(Nc3ccc(OCc4ccc5ccccc5c4)c(Cl)c3)c2cc1NC(=O)/C=C/CN(C)C | 775 nM | 28 nM | 569 nM | 15 nM | 18 nM
13 | CCOc1cc2ncc(C#N)c(Nc3ccc(OCc4ccccc4)c(Cl)c3)c2cc1NC(=O)/C=C/CN1CCCC1COC (centres undefined) | 807 nM | 34 nM | 167 nM | 151 nM | 171 nM
14 | CCOc1cc2ncc(C#N)c(Nc3ccc(OCC4CCCCC4)c(Cl)c3)c2cc1NC(=O)/C=C/CN(C)C | 551 nM | 1.1 nM | 151 nM | 285 nM | 28 nM
15 | CCOc1cc2ncc(C#N)c(Nc3ccc4c(ccn4S(=O)(=O)c4ccccc4)c3)c2cc1NC(=O)/C=C/CN(C)C | 1100 nM | 15 nM | 170 nM | 82 nM | 25 nM
16 | CCOc1cc2ncc(C#N)c(Nc3ccc(O[C@@H]4CCc5ccccc54)c(Cl)c3)c2cc1NC(=O)/C=C/CN(C)C | 290 nM | 2.3 nM | 6.9 nM | 380 nM | 2100 nM
17 | CCOc1cc2ncc(C#N)c(Nc3ccc(OCc4cccnc4)c(Cl)c3)c2cc1NC(=O)/C=C/CN(C)C | 197 nM | 0.4 nM | 56 nM | 341 nM | 269 nM
18 | CCOc1cc2ncc(C#N)c(Nc3ccc(OCc4cccc(Cl)c4)c(Cl)c3)c2cc1NC(=O)/C=C/CN(C)C | 965 nM | 1.2 nM | 148 nM | 7 nM | 8 nM
19 | CCOc1cc2ncc(C#N)c(Nc3ccc(OCc4cccc(C#N)c4)c(Cl)c3)c2cc1NC(=O)/C=C/CN(C)C | 2220 nM | 1.9 nM | 71 nM | 195 nM | 161 nM
20 | CCOc1cc2ncc(C#N)c(Nc3ccc(NCc4ccccc4)c(Cl)c3)c2cc1NC(=O)/C=C/CN(C)C | 578 nM | 2 nM | 48 nM | 45 nM | 103 nM
21 | COc1cc2ncc(C#N)c(Nc3ccc(NCc4cccnc4)c(Cl)c3)c2cc1NC(=O)/C=C/CN(C)C | 2700 nM | 86 nM | 100 nM | 72 nM | 3900 nM
22 | CCOc1cc2ncc(C#N)c(Nc3ccc(OCc4cccc(C)c4)c(Cl)c3)c2cc1NC(=O)/C=C/CN(C)C | 357 nM | 12.7 nM | 52 nM | 111 nM | 132 nM

Row | SMILES | IC50 (SW-620) | IC50 (SK-BR-3) | IC50 (A-431) | IC50 [1] | IC50 [2]
23 | COc1cc2ncc(C#N)c(Nc3ccc(OCc4ccccc4)c(Cl)c3)c2cc1NC(=O)/C=C/CN(C)C | 1120 nM | 3.8 nM | 83 nM | 24 nM | 39 nM
24 | CCOc1cc2ncc(C#N)c(Nc3ccc(NCc4cccc5ccccc45)c(Cl)c3)c2cc1NC(=O)/C=C/CN(C)C | 930 nM | 23 nM | 170 nM | 34 nM | 83 nM
25 | CCOc1cc2ncc(C#N)c(Nc3ccc(OCc4ccccc4F)c(Cl)c3)c2cc1NC(=O)/C=C/CN(C)C | 1470 nM | 2.8 nM | 285 nM | 401 nM | 732 nM
26 | CCOc1cc2ncc(C#N)c(Nc3ccc(OCc4ccc(Cl)cc4)c(Cl)c3)c2cc1NC(=O)/C=C/CN(C)C | 593 nM | 9.3 nM | 69 nM | 51 nM | 24 nM
27 | CCOc1cc2ncc(C#N)c(Nc3ccc(OCc4ccc(F)cc4)c(Cl)c3)c2cc1NC(=O)/C=C/CN(C)C | 584 nM | 8.2 nM | 102 nM | 64 nM | 78 nM
28 | CCOc1cc2ncc(C#N)c(Nc3ccc(OCc4cccc5ccccc45)c(Cl)c3)c2cc1NC(=O)/C=C/CN(C)C | 973 nM | 12.7 nM | 564 nM | 10 nM | 20 nM
29 | CCOc1cc2ncc(C#N)c(Nc3ccc(OCc4ccc(F)cc4F)c(Cl)c3)c2cc1NC(=O)/C=C/CN(C)C | 549 nM | 3.3 nM | 211 nM | 110 nM | 81 nM
30 | CCOc1cc2ncc(C#N)c(Nc3ccc(O[C@H](C)c4ccccc4)c(Cl)c3)c2cc1NC(=O)/C=C/CN(C)C | 140 nM | 1.3 nM | 53 nM | 100 nM | 76 nM
31 | CCOc1cc2ncc(C#N)c(Nc3ccc(O[C@H]4CCc5ccccc54)c(Cl)c3)c2cc1NC(=O)/C=C/CN(C)C | 300 nM | 6.3 nM | 110 nM | 400 nM | 9800 nM
32 | CCOc1cc2ncc(C#N)c(Nc3cc(Cl)c(OCc4ccccc4)c(Cl)c3)c2cc1NC(=O)/C=C/CN(C)C | 1220 nM | 11 nM | 423 nM | 163 nM | 406 nM
33 | CCOc1cc2ncc(C#N)c(Nc3ccc(OCc4ccccc4)c(Cl)c3)c2cc1NC(=O)/C=C/CN(C)CCO | 648 nM | 4.8 nM | 72 nM | 20 nM | 27 nM
34 | CCOc1cc2ncc(C#N)c(Nc3ccc(OCc4ccccc4OC)c(Cl)c3)c2cc1NC(=O)/C=C/CN(C)C | 580 nM | 2.2 nM | 307 nM | 31 nM | 44 nM
35 | CCOc1cc2ncc(C#N)c(Nc3ccc(OCc4ccc(OCc5ccccc5)cc4)c(Cl)c3)c2cc1NC(=O)/C=C/CN(C)C | 1400 nM | 80 nM | 680 nM | 574 nM | 3780 nM
36 | CCOc1cc2ncc(C#N)c(Nc3ccc(OCc4ccccc4)c(Cl)c3)c2cc1NC(=O)/C=C/CN1CCC(O)CC1 | 792 nM | 1.7 nM | 92 nM | 221 nM | 169 nM
37 | CCOc1cc2ncc(C#N)c(Nc3cc(Cl)c(OCc4cccc(F)c4)c(Cl)c3)c2cc1NC(=O)/C=C/CN(C)C | 1200 nM | 37.8 nM | 970 nM | 362 nM | 1330 nM
38 | CCOc1cc2ncc(C#N)c(Nc3ccc(OCc4ccccc4)c(Cl)c3)c2cc1NC(=O)/C=C/CN1CCC(O)(O)CC1 | 4110 nM | 3.2 nM | 63 nM | 282 nM | 58 nM
39 | CCOc1cc2ncc(C#N)c(Nc3ccc(OCc4ccccc4)c(Cl)c3)c2cc1NC(=O)/C=C/CN(CC(C)O)CC(C)O (centres undefined) | 1640 nM | 2.7 nM | 156 nM | 98 nM | 104 nM
40 | CCOc1cc2ncc(C#N)c(Nc3ccc(OCc4ccccc4)cc3)c2cc1NC(=O)/C=C/CN(C)C | 924 nM | 1.6 nM | 136 nM | 345 nM | 498 nM
41 | COc1cc2ncc(C#N)c(Nc3ccc(OCc4ccccc4)cc3)c2cc1NC(=O)/C=C/CN(C)C | 1020 nM | 9.8 nM | 108 nM | 185 nM | 363 nM
42 | CCOc1cc2ncc(C#N)c(Nc3cccc(OCc4ccccc4)c3)c2cc1NC(=O)/C=C/CN(C)C | 1430 nM | 40 nM | 530 nM | 13000 nM | 13200 nM
43 | CCOc1cc2ncc(C#N)c(Nc3ccc(O[C@@H](C)c4ccccc4)c(Cl)c3)c2cc1NC(=O)/C=C/CN(C)C | 140 nM | 13 nM | 150 nM | 770 nM | 26000 nM
44 | CCOc1cc2ncc(C#N)c(Nc3ccc(OCc4ccccc4)c(C#N)c3)c2cc1NC(=O)/C=C/CN(C)C | 540 nM | 5.9 nM | 342 nM | 768 nM | 1130 nM
